Here are results for one molecule from patent publication US8362204B2 (priority 2006, dated 2013).

This test has as its target T1, neuronal-type nicotinic receptors (Bos taurus, UniProt Q07263+Q8SPU6).
T1 construct: monolayer cultures of bovine adrenal chromaffin cells; endogenous in cells; host or cells: bovine adrenal chromaffin cells (primary monolayer cultures)
Format: cell-based, Bovine.

Values joined by “and” are separate entries in the source; they are usually repeats but may differ in a detail not shown here. Equal entries are not always repeated.

T1 sequence (Q07263 22-495): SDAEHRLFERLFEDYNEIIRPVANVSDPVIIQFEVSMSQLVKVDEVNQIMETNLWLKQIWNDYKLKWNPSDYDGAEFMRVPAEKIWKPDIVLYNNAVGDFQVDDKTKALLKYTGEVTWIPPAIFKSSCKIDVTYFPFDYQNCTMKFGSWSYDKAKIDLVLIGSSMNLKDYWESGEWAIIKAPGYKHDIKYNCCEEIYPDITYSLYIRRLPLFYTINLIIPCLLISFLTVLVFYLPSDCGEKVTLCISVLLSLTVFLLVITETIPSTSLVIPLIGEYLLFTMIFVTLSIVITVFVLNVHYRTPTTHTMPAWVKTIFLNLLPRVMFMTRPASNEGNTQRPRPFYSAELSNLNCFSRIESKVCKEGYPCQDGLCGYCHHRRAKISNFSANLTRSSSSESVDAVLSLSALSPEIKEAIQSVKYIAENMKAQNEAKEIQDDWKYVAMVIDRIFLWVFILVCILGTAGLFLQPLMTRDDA
T1 sequence (Q8SPU6 20-496): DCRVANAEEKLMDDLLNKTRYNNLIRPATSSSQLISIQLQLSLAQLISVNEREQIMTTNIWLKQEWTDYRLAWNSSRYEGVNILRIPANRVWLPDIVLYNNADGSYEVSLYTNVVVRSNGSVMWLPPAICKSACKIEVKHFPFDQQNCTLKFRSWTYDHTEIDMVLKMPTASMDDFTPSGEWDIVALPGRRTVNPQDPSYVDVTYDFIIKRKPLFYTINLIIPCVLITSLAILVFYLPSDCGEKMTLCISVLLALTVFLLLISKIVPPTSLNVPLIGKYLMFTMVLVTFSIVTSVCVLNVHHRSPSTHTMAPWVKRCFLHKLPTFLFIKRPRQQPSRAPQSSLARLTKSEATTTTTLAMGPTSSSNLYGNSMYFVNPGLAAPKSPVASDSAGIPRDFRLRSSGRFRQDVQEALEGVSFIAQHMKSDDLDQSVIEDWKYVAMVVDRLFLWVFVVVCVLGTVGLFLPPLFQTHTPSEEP

`CN1CCCC1c1cccnc1` (centres unmarked) [NICOTINE, nicotine, reference compound]: the “Adrenaline Release, 1st-4th (individual wells)” value was 4.31% and 4.52% (2×) and 4.48%; the “Adrenaline Release, mean” value is reported as 4.46%; the “Noradrenaline Release, 1st-4th (individual wells)” value is 6.62% and 6.89% (2×) and 6.99%; the “Noradrenaline Release, mean” value is 6.85%. Besides, the “noradrenaline released, basal release (0.72%) subtracted” value stood at 6.13%.
